Data from ChEMBL document CHEMBL1147193, “New 5-substituted thiazolo[3,2-b][1,2,4]triazol-6-ones: synthesis and anticancer evaluation” (2007).

Assays:
Assay type in all cases: functional
PC-3 = experiment: Growth inhibition of human PC3 cells after 48 hrs by SRB protein assay; conditions: PC-3, 48 h; for TGI: read-out: Log TGI (converted)
KM12 = experiment: Growth inhibition of human KM12 cells after 48 hrs by SRB protein assay; conditions: KM12, 48 h; for TGI: read-out: Log TGI (converted)
A498 = experiment: Growth inhibition of human A498 cells after 48 hrs by SRB protein assay; conditions: A498, 48 h; for TGI: read-out: Log TGI (converted)
A549 = experiment: Growth inhibition of human A549/ATCC cells after 48 hrs by SRB protein assay; conditions: A549, 48 h; for TGI: read-out: Log TGI (converted)
HL-60 = experiment: Growth inhibition of human HL60 cells after 48 hrs by SRB protein assay; conditions: HL-60, 48 h; for TGI: read-out: Log TGI (converted)
SF-539 = experiment: Growth inhibition of human SF539 cells after 48 hrs by SRB protein assay; conditions: SF-539, 48 h; for TGI: read-out: Log TGI (converted)
SW-620 = experiment: Growth inhibition of human SW620 cells after 48 hrs by SRB protein assay; conditions: SW-620, 48 h; for TGI: read-out: Log TGI (converted)
SF-268 = experiment: Growth inhibition of human SF268 cells after 48 hrs by SRB protein assay; conditions: SF-268, 48 h; for TGI: read-out: Log TGI (converted)
IGROV-1 = experiment: Growth inhibition of human IGROV1 cells after 48 hrs by SRB protein assay; conditions: IGROV-1, 48 h; for TGI: read-out: Log TGI (converted)
NCI-H23 = experiment: Growth inhibition of human NCI-H23 cells after 48 hrs by SRB protein assay; conditions: NCI-H23, 48 h; for TGI: read-out: Log TGI (converted)
SF-295 = experiment: Growth inhibition of human SF295 cells after 48 hrs by SRB protein assay; conditions: SF-295, 48 h; for TGI: read-out: Log TGI (converted)
SN12C = experiment: Growth inhibition of human SN12C cells after 48 hrs by SRB protein assay; conditions: for TGI: read-out: Log TGI (converted)
NCI/ADR-RES = experiment: Growth inhibition of human NCI/ADR-RES cells after 48 hrs by SRB protein assay; conditions: for TGI: read-out: Log TGI (converted)
OVCAR-4 = experiment: Growth inhibition of human OVCAR4 cells after 48 hrs by SRB protein assay; conditions: OVCAR-4, 48 h; for TGI: read-out: Log TGI (converted)
LOX IMVI = experiment: Growth inhibition of human LOX IMVI cells after 48 hrs by SRB protein assay; conditions: for TGI: read-out: Log TGI (converted)
DU-145 = experiment: Growth inhibition of human DU145 cells after 48 hrs by SRB protein assay; conditions: DU-145, 48 h; for TGI: read-out: Log TGI (converted)
COLO 205 = experiment: Growth inhibition of human COLO205 cells after 48 hrs by SRB protein assay; conditions: COLO 205, 48 h; for TGI: read-out: Log TGI (converted)
SK-MEL-2 = experiment: Growth inhibition of human SK-MEL-2 cells after 48 hrs by SRB protein assay; conditions: SK-MEL-2, 48 h; for TGI: read-out: Log TGI (converted)
786-0 = experiment: Growth inhibition of human 786-0 cells after 48 hrs by SRB protein assay; conditions: 786-0, 48 h; for TGI: read-out: Log TGI (converted)
SNB-19 = experiment: Growth inhibition of human SNB19 cells after 48 hrs by SRB protein assay; conditions: SNB-19, 48 h; for TGI: read-out: Log TGI (converted)
SNB-75 = experiment: Growth inhibition of human SNB75 cells after 48 hrs by SRB protein assay; conditions: SNB-75, 48 h; for TGI: read-out: Log TGI (converted)
SR = experiment: Growth inhibition of human SR cells after 48 hrs by SRB protein assay; conditions: for TGI: read-out: Log TGI (converted)

`COc1ccc(NC(=O)CC2Sc3ncnn3C2=O)cc1` (stereo unspecified) was tested, and the GI50 (PC-3) was 23.4 µM, the TGI (PC-3) was 56.2 µM and the GI50 (KM12) was over 100 µM. For the same compound, the TGI (KM12) was over 100 µM, the GI50 (A498) was 21.4 µM and the TGI (A498) was 57.5 µM. It also gave a GI50 (A549) of 61.7 µM, a TGI (A549) of over 100 µM and a GI50 (HL-60) of 27.5 µM. It also gave a TGI (HL-60) of over 100 µM, a GI50 (SF-539) of 26.9 µM and a TGI (SF-539) of 55 µM. It also gave a GI50 (SW-620) of 37.2 µM, a TGI (SW-620) of over 100 µM and a GI50 (SF-268) of over 100 µM. For the same compound, the TGI (SF-268) was over 100 µM, the GI50 (IGROV-1) was 67.6 µM and the TGI (IGROV-1) was over 100 µM. For the same compound, the GI50 (NCI-H23) was 20 µM, the TGI (NCI-H23) was 37.2 µM and the GI50 (SF-295) was over 100 µM. It also gave a TGI (SF-295) of over 100 µM, a GI50 (SN12C) of 25.1 µM and a TGI (SN12C) of 56.2 µM. For the same compound, the GI50 (NCI/ADR-RES) was 31.6 µM, the TGI (NCI/ADR-RES) was over 100 µM and the GI50 (OVCAR-4) was 57.5 µM. It also gave a TGI (OVCAR-4) of over 100 µM, a GI50 (LOX IMVI) of 21.9 µM and a TGI (LOX IMVI) of 42.7 µM. For the same compound, the GI50 (DU-145) was 57.5 µM, the TGI (DU-145) was over 100 µM and the GI50 (COLO 205) was 30.2 µM. For the same compound, the TGI (COLO 205) was 79.4 µM, the GI50 (SK-MEL-2) was over 100 µM and the TGI (SK-MEL-2) was over 100 µM. For the same compound, the GI50 (786-0) was 16.6 µM and the TGI (786-0) was 30.9 µM.
`O=C(CC1Sc2ncnn2C1=O)Nc1ccccc1` (stereo unspecified) gave a GI50 (PC-3) of 72.4 µM, a TGI (PC-3) of over 100 µM and a GI50 (KM12) of over 100 µM. For the same compound, the TGI (KM12) was over 100 µM, the GI50 (SNB-19) was over 100 µM and the TGI (SNB-19) was over 100 µM. The GI50 (SNB-75) was 31.6 µM, the TGI (SNB-75) was 85.1 µM and the GI50 (A549) was over 100 µM. It also gave a TGI (A549) of over 100 µM, a GI50 (SW-620) of 3.24 µM and a TGI (SW-620) of 44.7 µM. The GI50 (SF-268) was over 100 µM, the TGI (SF-268) was over 100 µM and the GI50 (IGROV-1) was 25.7 µM. The TGI (IGROV-1) was 66.1 µM, the GI50 (NCI-H23) was 0.115 µM and the TGI (NCI-H23) was 9.12 µM. For the same compound, the GI50 (SF-295) was over 100 µM, the TGI (SF-295) was over 100 µM and the GI50 (SN12C) was 27.5 µM. For the same compound, the TGI (SN12C) was 67.6 µM, the GI50 (NCI/ADR-RES) was 63.1 µM and the TGI (NCI/ADR-RES) was over 100 µM. It also gave a GI50 (OVCAR-4) of over 100 µM, a TGI (OVCAR-4) of over 100 µM and a GI50 (LOX IMVI) of 25.7 µM. It also gave a TGI (LOX IMVI) of 53.7 µM, a GI50 (COLO 205) of 25.7 µM and a TGI (COLO 205) of 79.4 µM. It also gave a GI50 (SK-MEL-2) of 21.9 µM, a TGI (SK-MEL-2) of 53.7 µM and a GI50 (786-0) of 19.5 µM. For the same compound, the TGI (786-0) was 36.3 µM.
`O=C(CC1Sc2ncnn2C1=O)Nc1ccc(Br)cc1` (stereo unspecified) showed a GI50 (PC-3) of 26.9 µM, a TGI (PC-3) of 95.5 µM and a GI50 (KM12) of over 100 µM. For the same compound, the TGI (KM12) was over 100 µM, the GI50 (A498) was 12.3 µM and the TGI (A498) was 57.5 µM. The GI50 (A549) was 35.5 µM, the TGI (A549) was over 100 µM and the GI50 (HL-60) was 19.5 µM. It also gave a TGI (HL-60) of over 100 µM, a GI50 (SF-539) of 20.9 µM and a TGI (SF-539) of 46.8 µM. For the same compound, the GI50 (SW-620) was 44.7 µM, the TGI (SW-620) was over 100 µM and the GI50 (SF-268) was over 100 µM. It also gave a TGI (SF-268) of over 100 µM, a GI50 (IGROV-1) of 34.7 µM and a TGI (IGROV-1) of over 100 µM. For the same compound, the GI50 (NCI-H23) was 20.9 µM, the TGI (NCI-H23) was 43.7 µM and the GI50 (SF-295) was over 100 µM. The TGI (SF-295) was over 100 µM, the GI50 (SR) was 18.2 µM and the TGI (SR) was over 100 µM. The GI50 (SN12C) was 22.9 µM, the TGI (SN12C) was 63.1 µM and the GI50 (NCI/ADR-RES) was 25.1 µM. For the same compound, the TGI (NCI/ADR-RES) was 70.8 µM, the GI50 (OVCAR-4) was 31.6 µM and the TGI (OVCAR-4) was over 100 µM. It also gave a GI50 (LOX IMVI) of 16.2 µM, a TGI (LOX IMVI) of 31.6 µM and a GI50 (DU-145) of 38.9 µM. For the same compound, the TGI (DU-145) was over 100 µM, the GI50 (COLO 205) was 17.8 µM and the TGI (COLO 205) was 37.2 µM. It also gave a GI50 (SK-MEL-2) of 66.1 µM, a TGI (SK-MEL-2) of over 100 µM and a GI50 (786-0) of 16.6 µM. The TGI (786-0) was 30.2 µM.
`O=c1/c(=C/c2ccc(Cl)cc2)sc2ncnn12` was tested, and the GI50 (PC-3) was 11.7 µM, the TGI (PC-3) was 28.8 µM and the GI50 (KM12) was 10.5 µM. For the same compound, the TGI (KM12) was 25.7 µM, the GI50 (A498) was 19.1 µM and the TGI (A498) was 33.1 µM. The GI50 (SNB-19) was 16.2 µM, the TGI (SNB-19) was 32.4 µM and the GI50 (SNB-75) was 14.1 µM. For the same compound, the TGI (SNB-75) was 32.4 µM, the GI50 (A549) was 21.4 µM and the TGI (A549) was 83.2 µM. It also gave a GI50 (HL-60) of 0.537 µM, a TGI (HL-60) of 2.04 µM and a GI50 (SF-539) of 10.2 µM. The TGI (SF-539) was 21.9 µM, the GI50 (SW-620) was 14.8 µM and the TGI (SW-620) was 30.9 µM. It also gave a GI50 (SF-268) of 16.2 µM, a TGI (SF-268) of 58.9 µM and a GI50 (IGROV-1) of 10 µM. For the same compound, the TGI (IGROV-1) was 24.5 µM, the GI50 (NCI-H23) was 17.8 µM and the TGI (NCI-H23) was 38 µM. For the same compound, the GI50 (SF-295) was 17.8 µM, the TGI (SF-295) was 35.5 µM and the GI50 (SR) was 8.32 µM. It also gave a TGI (SR) of 33.9 µM, a GI50 (SN12C) of 15.5 µM and a TGI (SN12C) of 49 µM. The GI50 (NCI/ADR-RES) was 26.3 µM, the TGI (NCI/ADR-RES) was 89.1 µM and the GI50 (OVCAR-4) was 17.4 µM. For the same compound, the TGI (OVCAR-4) was 63.1 µM, the GI50 (LOX IMVI) was 10.7 µM and the TGI (LOX IMVI) was 25.1 µM. For the same compound, the GI50 (DU-145) was 12.9 µM, the TGI (DU-145) was 32.4 µM and the GI50 (COLO 205) was 17 µM. It also gave a TGI (COLO 205) of 38.9 µM, a GI50 (SK-MEL-2) of 12.6 µM and a TGI (SK-MEL-2) of 28.2 µM. The GI50 (786-0) was 13.5 µM and the TGI (786-0) was 28.8 µM.
